{"source": "patent US12117442B2", "about": "“Methods of screening compounds” (Depixus SAS, priority 2022, dated 2024)", "key": {"[1]": {"system": "preQ1 riboswitch U6C mutant", "conditions": "U6C versus WT; basis for selecting the mutant; cited from earlier work"}, "[2]": {"system": "preQ1 riboswitch U7C + C15U mutant", "conditions": "U7C + C15U versus wt; basis for selecting the mutant; cited from earlier work"}, "[3]": {"molecular_target": "preQ1 riboswitch C15U mutant", "test": "Ramp analysis, C15U mutant preQ1 riboswitch", "type": "binding, Bsu", "conditions": "fit of high-force fraction", "excerpt": "(§1) The preQ1 riboswitch has several point substitutions that modify affinity to the preQ1 ligand (FIG. 4A).\n(§2) Having established a reference point, the four different mutants were used to study the effect on preQ1 binding (FIG. 4C-4G). […] The difference could be due to the Mg^2+ used. Nonetheless, the platform was able to distinguish a 3-fold differences in KD, which is less apparent in platforms like SPR or fluorescent titration."}, "preQ1 riboswitch [4]": {"molecular_target": "preQ1 riboswitch", "conditions": "comparison result obtained by smFRET; cited from earlier work"}, "[5]": {"system": "preQ1 riboswitch A10G mutant", "test": "Ramp analysis, A10G mutant preQ1 riboswitch", "type": "binding, Bsu", "excerpt": "as §1\nWith this mutant, the whole distribution was shifted towards higher forces, instead of having two different fractions (FIG. 4E). […] The constant-force step experiment also reflected the changes in the equilibrium force in micromolar range (FIG. 4F)."}, "preQ1 riboswitch [6]": {"system": "preQ1 riboswitch", "test": "Long constant-force experiments at 9.6 pN on preQ1 riboswitch", "type": "binding, Bsu", "method": "To study the molecular dynamics of the preQ1 riboswitch using the platform described herein, wild type (WT) Bsu riboswitch was attached to the flowcell as described in Example 1. A step constant-force experiments were then performed, where the molecule is kept at a constant force for a given amount of time before increasing the force in a stepwise manner from lower to higher forces (FIG. 3B). The z position of the bead was recorded and at forces closer to equilibrium, the molecule transitioned between the folded and unfolded state (FIG. 3B). The force was maintained constant for five minutes at the equilibrium force (where the molecule spends as much time in the unfolded versus folded state) and various concentrations of the preQ1 ligand were tested. The binding of the ligand to the structure (arrows shown in representative binding analysis curve of FIG. 3C) was monitored in real time and at the level of the single molecule. A binding which causes the structure to remain in the folded state for more than 3 seconds was recorded. The kon calculated by dividing the number of events observed when the ligand is bound to the RNA structure over the time of experiment at a given concentration of the ligand. The RNA is considered bound to a ligand (here preQ1 ligand) when it stays folded for longer than […]. By testing different concentrations, the kon of the molecule was measured (FIG. 3D). […] For each force, the raw data was fitted to two different states using Hidden Markov model (FIG. 3B), and the fraction of time for which each molecule is present at the folded state was calculated over the time at each force step. The fraction was plotted against the force for each step, and the equilibrium force (inflection point) was determined for each molecule when the molecule spent 50% of the time at each state (FIG. 3F). The half-width of the force can also be determined by calculating 1/e (e=Euler's number) on either side of the inflection point, which indicates the force range where the molecule is bistable and transitions from folded and unfolded state (FIG. 3F). […]"}, "[7]": {"molecular_target": "preQ1 riboswitch U7C + C15U mutant", "test": "Ramp analysis, U7C + C15U double mutant preQ1 riboswitch", "type": "binding, Bsu", "conditions": "fit of high-force fraction", "excerpt": "as §1, §2"}, "[8]": {"system": "preQ1 riboswitch A10G mutant", "conditions": "A10G versus wt; basis for selecting the mutant; cited from earlier work"}, "[9]": {"system": "preQ1 riboswitch U6C mutant", "test": "Ramp analysis, U6C mutant preQ1 riboswitch", "type": "binding, Bsu", "conditions": "no KD from fitting maximum density or high-force density", "excerpt": "as §1"}, "[10]": {"system": "preQ1 riboswitch C15U mutant", "conditions": "C15U versus wt; basis for selecting the mutant; cited from earlier work"}, "WT preQ1 riboswitch": {"molecular_target": "WT preQ1 riboswitch", "test": "Ramp analysis, WT preQ1 riboswitch", "type": "binding, Bsu", "conditions": "fit of high-force fraction", "method": "The WT preQ1 riboswitch was used as a reference (FIG. 4B). […] The peak around the reference force decreased while there was an increase in the proportion of cycles that have a higher unfolding force. The higher force cycles can represent the binding of the ligand and formation of the pseudoknot. The fraction of cycles that have an unfolding force greater than 95% confidence interval of each bead was calculated in control conditions (FIG. 4B). […] This is similar to the KD calculated in Example 2 from the constant force experiment at 9.6 pN."}, "[11]": {"system": "wild type (WT) Bsu preQ1 riboswitch", "test": "Step constant-force experiments on WT preQ1 riboswitch", "type": "binding", "excerpt": "In a Constant-Force Experiment, the nucleic acid molecules are subjected to the same force for a certain amount of time before it is increased in a stepwise manner. The equilibrium force is the point at which the molecule spends equal time in both folded and unfolded states. Ligand binding at this force can cause a change in the dynamics of folding and unfolding.\nTo study the molecular dynamics of the preQ1 riboswitch using the platform described herein, wild type (WT) Bsu riboswitch was attached to the flowcell as described in Example 1. A step constant-force experiments were then performed, where the molecule is kept at a constant force for a given amount of time before increasing the force in a stepwise manner from lower to higher forces (FIG. 3B). The z position of the bead was recorded and at forces closer to equilibrium, the molecule transitioned between the folded and unfolded state (FIG. 3B). The force was maintained constant for five minutes at the equilibrium force (where the molecule spends as much time in the unfolded versus folded state) and various concentrations of the preQ1 ligand were tested. The binding of the ligand to the structure (arrows shown in representative binding analysis curve of FIG. 3C) was monitored in real time and at the level of the single molecule. A binding which causes the structure to remain in the folded state for more than 3 seconds was recorded. The kon calculated by dividing the number of events observed when the ligand is bound to the RNA structure over the time of experiment at a given concentration of the ligand. The RNA is considered bound to a ligand (here preQ1 ligand) when it stays folded for longer than 3.3 seconds. By testing different concentrations, the kon of the molecule was measured (FIG. 3D). The koff is inverse of the length of time when the RNA structure is bound by a ligand. Accordingly, a duration, when the ligand left the RNA structure (star) as the RNA structure went back to rapid transition between folded and unfolded state, was observed. The duration of this folded state allows to measure the koff of the ligand (FIG. 3E). The kon is dependent on the ligand concentration whereas the koff is not. For each force, the raw data was fitted to two different states using Hidden Markov model (FIG. 3B), and the fraction of time for which each molecule is present at the folded state was calculated over the time at each force step. The fraction was plotted against the force for each step, and the equilibrium force (inflection point) was determined for each molecule when the molecule spent 50% of the time at each state (FIG. 3F). The half-width of the force can also be determined by calculating 1/e (e=Euler's number) on either side of the inflection point, which indicates the force range where the molecule is bistable and transitions from folded and unfolded state (FIG. 3F). The transition frequency was calculated for each of the force steps recorded and plotted again the normalized force, corresponding to the equilibrium force for each bead in control conditions (FIG. 3G).\nFor the subsequent experiments, 1 mM Mg^2+ was added in all buffers.\nTo study the effect of preQ1 ligand binding to the riboswitch, constant-force step experiments were performed with increasing concentration of preQ1 ligand (FIG. 3B)."}, "HIV-1 TAR [12]": {"system": "HIV-1 TAR", "test": "Ramp experiments (unfolding/refolding force) on HIV-TAR RNA", "type": "binding", "conditions": "for effect on unfolding force: adding increasing concentrations", "excerpt": "In a ramp experiment, the nucleic acid (e.g., RNA) molecules are subjected to multiple cycles of slowly increasing and/or decreasing force, and the value at which the molecule unfolds or refolds can be determined from a sudden change in the bead's position. Upon binding, a ligand can cause a change in the unfolding or refolding force if it stabilizes or destabilizes the RNA structure.\nA 59-nucleotide HIV-TAR RNA flanked by RNA/DNA duplexes was attached to a paramagnetic bead on one side and the flowcell on the other end.\nTo investigate whether the platform can distinguish between different KD, three additional small molecules were used that are known to bind to the HIV-1 TAR structure with varying binding affinities (FIG. 2C-2E). […] Above 100 μM of Kanamycin, there is a widening of the force distribution (FIG. 2D)."}, "pre-miR-21-bp mutant": {"system": "pre-miR-21-bp mutant", "test": "Dicer binding to pre-miR-21-bp mutant", "conditions": "20 nM full-length Dicer without magnesium; mutation abolishes bulge", "method": "(§3) Pre-miR-21 and pre-miR-21-bp mutants are used as substrates to measure the effect of Dicer on the folding kinetics. Dicer is a double-strand-specific ribonuclease that binds the pre-miRNAs and cleaves them to generate mature miRNAs. Adding 20 nM of full-length Dicer without magnesium causes the binding of the protein to the structure without further processing of the structure. […] Therefore, the platform described herein is useful for detecting interaction between an RNA scaffold and an RNA binding protein."}, "pre-miR-21": {"system": "pre-miR-21", "test": "Dicer binding to pre-miR-21 (unfolding force)", "conditions": "20 nM full-length Dicer without magnesium", "method": "as §3"}, "HIV-1 TAR [13]": {"molecular_target": "HIV-1 TAR", "conditions": "known binder of HIV-1 TAR; cited from earlier work"}, "[14]": {"conditions": "1 μM preQ1 ligand, lesser extent than 1 mM Mg^2+"}, "[15]": {"conditions": "increasing concentrations of preQ1, 1 mM Mg^2+ in buffers"}, "[16]": {"conditions": "fit of changes in unfolding force, ramp experiments, read-out: calculated KD"}}, "note": "Where two headings read alike, the source gives them in different places.", "data": [{"compound": "NCc1c[nH]c2nc(N)[nH]c(=O)c12", "note": "[preQ1]", "values": [{"measurement": "Effect of mutation on binding affinity", "setting": "[1]", "result": "Abolished versus WT"}, {"measurement": "Effect of mutation on binding affinity", "setting": "[2]", "result": "Greatly Increase versus wt"}, {"measurement": "Kd", "setting": "[3]", "result": 0.00535, "unit": "µM"}, {"measurement": "Kd", "setting": "preQ1 riboswitch [4]", "result": 0.134, "unit": "µM"}, {"measurement": "increase in KD compared with WT", "setting": "[5]; A10G versus WT", "result": "~400", "unit": "fold"}, {"measurement": "Kd", "setting": "[5]; A10G, fit of maximum unfolding force density for each bead", "result": 34.7, "unit": "µM"}, {"measurement": "Kon", "setting": "preQ1 riboswitch [6]; 9.6 pN, fit of attachment rate", "result": "0.0015 ^−1 nM^−1"}, {"measurement": "Koff", "setting": "preQ1 riboswitch [6]; 9.6 pN, one per mean time of ligand-bound event", "result": 0.11, "unit": "s⁻¹"}, {"measurement": "Kd", "setting": "preQ1 riboswitch [6]; calculated by Koff/Kon", "result": 0.073, "unit": "µM"}, {"measurement": "Kd", "setting": "[7]", "result": 0.0177, "unit": "µM"}, {"measurement": "Effect of mutation on binding affinity", "setting": "[8]", "result": "Decrease versus wt"}, {"measurement": "ligand binding", "setting": "[9]", "result": "abolished the ligand binding"}, {"measurement": "Effect of mutation on binding affinity", "setting": "[10]", "result": "Increase versus wt"}, {"measurement": "Kd", "setting": "WT preQ1 riboswitch", "result": 0.0878, "unit": "µM"}, {"measurement": "effect of ligand and cation together", "setting": "[11]; 1 μM preQ1 ligand plus 1 mM Mg^2+", "result": "additive effect"}, {"measurement": "effect on transition frequency", "setting": "[11]; [14]", "result": "decreased transition frequency"}, {"measurement": "effect on unfolding equilibrium force", "setting": "[11]; [14]", "result": "increased the unfolding equilibrium force"}, {"measurement": "Kd", "setting": "[11]; fit of equilibrium force at each concentration", "result": 0.162, "unit": "µM"}, {"measurement": "effect on equilibrium force", "setting": "[11]; [15]", "result": "increased equilibrium force"}, {"measurement": "effect on transition frequency", "setting": "[11]; [15]", "result": "decreased the transition frequency"}]}, {"compound": "N=C(N)NCCC[C@H](N)C(N)=O", "note": "[argininamide]", "values": [{"measurement": "effect on unfolding and refolding force", "setting": "HIV-1 TAR [12]; 10 mM", "result": "increased both the unfolding and refolding force"}, {"measurement": "effect on unfolding force", "setting": "HIV-1 TAR [12]", "result": "increased the unfolding force"}, {"measurement": "Kd", "setting": "HIV-1 TAR [12]; fit of normalized force at maximum unfolding distribution for each bead, read-out: KD", "result": 5430, "unit": "µM"}]}, {"compound": "Dicer: double-strand-specific ribonuclease that binds the pre-miRNAs and cleaves them to generate mature miRNAs", "values": [{"measurement": "binding to mutant", "setting": "pre-miR-21-bp mutant", "result": "does not occur"}, {"measurement": "effect of binding on unfolding force", "setting": "pre-miR-21", "result": "increase in the unfolding force"}]}, {"compound": "Cc1ccc2c(N)c(C(=O)Nc3cccc(C(F)(F)F)c3)sc2n1", "note": "[Compound 4, 3-Amino-6-methyl-N-(3-(trifluoromethyl)phenyl)thieno[2,3-b]pyridine-2-carboxamide]", "values": [{"measurement": "effect on unfolding force", "setting": "HIV-1 TAR [12]", "result": "decrease in the unfolding force"}, {"measurement": "Kd", "setting": "HIV-1 TAR [12]; [16]", "result": 2.99, "unit": "µM"}, {"measurement": "Kd", "setting": "HIV-1 TAR [13]", "result": 2.4, "unit": "µM"}]}, {"compound": "[Mg+2]", "note": "[Mg^2+]", "values": [{"measurement": "effect on transition frequency at equilibrium force", "setting": "[11]; 1 mM Mg^2+ alone, no ligand", "result": "transition frequency decreased"}, {"measurement": "effect on unfolding equilibrium force", "setting": "[11]; 1 mM Mg^2+ alone, no ligand", "result": "increased the unfolding equilibrium force"}]}, {"compound": "CCN[C@@H]1C[C@H](N)[C@@H](O[C@H]2OC(CN)=CC[C@H]2N)[C@H](O)[C@H]1O[C@H]1OC[C@](C)(O)[C@H](NC)[C@H]1O", "note": "[Netilmicin]", "values": [{"measurement": "effect on unfolding force", "setting": "HIV-1 TAR [12]", "result": "increase in the unfolding force"}, {"measurement": "Kd", "setting": "HIV-1 TAR [12]; [16]", "result": "~13.4", "unit": "µM"}, {"measurement": "Kd", "setting": "HIV-1 TAR [13]", "result": 1.4, "unit": "µM"}, {"measurement": "Ki", "setting": "HIV-1 TAR [13]", "result": "~14", "unit": "µM"}]}]}
